Assay results as given in the supplement of paper PMC11424490.

What was measured:
Test in all cases: combination cScore with sotorasib (Bliss gap around IC50) (%PoC); higher = stronger additive effect
[1] = test system: NCI-H358
How it was run: (§1)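 After 24 h in 384-well plates (500 or 800 cells per well), NCI-H2122, NCI-H358 and SW837 cells received concentration matrices and grew for 72 h, except SW837, which grew for 144 h. CellTiter-Glo readings were scaled to vehicle wells and fitted with four-parameter curves. Each score is the averaged Bliss-independence difference (expected minus measured viability) over a region around both monotherapy IC50s, or at top concentrations when no IC50 was reached.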

[2] = test system: NCI-H2122
How it was run: as §1

[3] = test system: SW837
How it was run: as §1

Row | Structure (SMILES) | combination cScore with sotorasib [1] | combination cScore with sotorasib [2] | combination cScore with sotorasib [3]
1 | Cc1nc(Nc2ncc(C(=O)Nc3c(C)cccc3Cl)s2)cc(N2CCN(CCO)CC2)n1 [Dasatinib] + C=CC(=O)N1CCN(c2nc(=O)n(-c3c(C)ccnc3C(C)C)c3nc(-c4c(O)cccc4F)c(F)cc23)[C@@H](C)C1 [sotorasib] | 9.3 | 30.8 | 17.9
2 | COc1cccc2c1C(=O)c1c(O)c3c(c(O)c1C2=O)C[C@@](O)(C(C)=O)C[C@@H]3O[C@H]1C[C@H](N)[C@H](O)[C@H](C)O1 [Daunorubicin] + C=CC(=O)N1CCN(c2nc(=O)n(-c3c(C)ccnc3C(C)C)c3nc(-c4c(O)cccc4F)c(F)cc23)[C@@H](C)C1 [sotorasib] | 2.01 | 18.1 | 5.95
3 | C[C@H](Nc1ncnc2nc[nH]c12)c1cc2cccc(Cl)c2c(=O)n1-c1ccccc1 [Duvelisib] + C=CC(=O)N1CCN(c2nc(=O)n(-c3c(C)ccnc3C(C)C)c3nc(-c4c(O)cccc4F)c(F)cc23)[C@@H](C)C1 [sotorasib] | 4.86 | 14.2 | 18.6
4 | C#Cc1cccc(Nc2ncnc3cc(OCCOC)c(OCCOC)cc23)c1 [Erlotinib] + C=CC(=O)N1CCN(c2nc(=O)n(-c3c(C)ccnc3C(C)C)c3nc(-c4c(O)cccc4F)c(F)cc23)[C@@H](C)C1 [sotorasib] | 10.2 | 27.4 | 23
5 | COc1cc(Nc2ncc(F)c(Nc3ccc4c(n3)N(COP(=O)(O)O)C(=O)C(C)(C)O4)n2)cc(OC)c1OC [Fostamatinib] + C=CC(=O)N1CCN(c2nc(=O)n(-c3c(C)ccnc3C(C)C)c3nc(-c4c(O)cccc4F)c(F)cc23)[C@@H](C)C1 [sotorasib] | 8.55 | 23.3 | 23.7
6 | C[C@H](Nc1ccc2c(c1)OCCn1cc(N3C(=O)OC[C@H]3C(F)F)nc1-2)C(N)=O [GDC-0077] + C=CC(=O)N1CCN(c2nc(=O)n(-c3c(C)ccnc3C(C)C)c3nc(-c4c(O)cccc4F)c(F)cc23)[C@@H](C)C1 [sotorasib] | 3.7 | 25.4 | 18.3
7 | CCCc1cc(C)[nH]c(=O)c1CNC(=O)c1cc(-c2ccnc(N3CCN(C)CC3)c2)cc2c1cnn2C(C)C [GSK343] + C=CC(=O)N1CCN(c2nc(=O)n(-c3c(C)ccnc3C(C)C)c3nc(-c4c(O)cccc4F)c(F)cc23)[C@@H](C)C1 [sotorasib] | 2.88 | 8.7 | 9.75
8 | COc1cc2ncnc(Nc3ccc(F)c(Cl)c3)c2cc1OCCCN1CCOCC1 [Gefitinib] + C=CC(=O)N1CCN(c2nc(=O)n(-c3c(C)ccnc3C(C)C)c3nc(-c4c(O)cccc4F)c(F)cc23)[C@@H](C)C1 [sotorasib] | 8.62 | 26.4 | 23.2
9 | CCS(=O)(=O)Nc1ccc2c(c1)/C(=C(/Nc1ccc(CN3CCCCC3)cc1)c1ccccc1)C(=O)N2 [Hesperadin] + C=CC(=O)N1CCN(c2nc(=O)n(-c3c(C)ccnc3C(C)C)c3nc(-c4c(O)cccc4F)c(F)cc23)[C@@H](C)C1 [sotorasib] | 4.25 | 12.3 | 5.4
10 | O=C(O)CNC(=O)c1c(O)c2ccccc2n(Cc2ccccc2)c1=O [IOX2] + C=CC(=O)N1CCN(c2nc(=O)n(-c3c(C)ccnc3C(C)C)c3nc(-c4c(O)cccc4F)c(F)cc23)[C@@H](C)C1 [sotorasib] | 0.66 | 21.3 | 17.9
11 | C[C@H](NC(=O)c1c(N)nn2cccnc12)c1cc2cccc(C#Cc3cnn(C)c3)c2c(=O)n1-c1ccccc1 [IPI-549] + C=CC(=O)N1CCN(c2nc(=O)n(-c3c(C)ccnc3C(C)C)c3nc(-c4c(O)cccc4F)c(F)cc23)[C@@H](C)C1 [sotorasib] | 2.47 | 15.1 | 4.45
12 | C=CC(=O)N1CCC[C@@H](n2nc(-c3ccc(Oc4ccccc4)cc3)c3c(N)ncnc32)C1 [Ibrutinib] + C=CC(=O)N1CCN(c2nc(=O)n(-c3c(C)ccnc3C(C)C)c3nc(-c4c(O)cccc4F)c(F)cc23)[C@@H](C)C1 [sotorasib] | 14.4 | 27.9 | 13.3
13 | CS(=O)(=O)CCNCc1ccc(-c2ccc3ncnc(Nc4ccc(OCc5cccc(F)c5)c(Cl)c4)c3c2)o1 [Lapatinib] + C=CC(=O)N1CCN(c2nc(=O)n(-c3c(C)ccnc3C(C)C)c3nc(-c4c(O)cccc4F)c(F)cc23)[C@@H](C)C1 [sotorasib] | 12.8 | 28.9 | 15.4
14 | Cc1c(CN2CCC(Nc3ncnc4sc(CC(F)(F)F)cc34)CC2)ccc2[nH]c(C#N)cc12 [MI-463] + C=CC(=O)N1CCN(c2nc(=O)n(-c3c(C)ccnc3C(C)C)c3nc(-c4c(O)cccc4F)c(F)cc23)[C@@H](C)C1 [sotorasib] | 2.97 | 10.2 | 12.3
15 | NC1(c2ccc(-c3nc4ccn5c(=O)[nH]nc5c4cc3-c3ccccc3)cc2)CCC1 [MK-2206] + C=CC(=O)N1CCN(c2nc(=O)n(-c3c(C)ccnc3C(C)C)c3nc(-c4c(O)cccc4F)c(F)cc23)[C@@H](C)C1 [sotorasib] | 1.28 | 15.5 | 18
16 | CC(C)n1nc(-c2ccc3oc(N)nc3c2)c2c(N)ncnc21 [MLN-0128] + C=CC(=O)N1CCN(c2nc(=O)n(-c3c(C)ccnc3C(C)C)c3nc(-c4c(O)cccc4F)c(F)cc23)[C@@H](C)C1 [sotorasib] | 10.3 | 6.3 | 15.9
17 | O=C1c2c(O)ccc(O)c2C(=O)c2c(NCCNCCO)ccc(NCCNCCO)c21 [Mitoxantrone] + C=CC(=O)N1CCN(c2nc(=O)n(-c3c(C)ccnc3C(C)C)c3nc(-c4c(O)cccc4F)c(F)cc23)[C@@H](C)C1 [sotorasib] | 1.3 | 11.3 | 7.33
18 | COc1cc(N2CCC(N3CCN(C)CC3)CC2)ccc1Nc1ncc(Cl)c(Nc2ccccc2S(=O)(=O)C(C)C)n1 [NVP-TAE684] + C=CC(=O)N1CCN(c2nc(=O)n(-c3c(C)ccnc3C(C)C)c3nc(-c4c(O)cccc4F)c(F)cc23)[C@@H](C)C1 [sotorasib] | 5.9 | 14.6 | 22.3
19 | O=C(c1cc(Cc2n[nH]c(=O)c3ccccc23)ccc1F)N1CCN(C(=O)C2CC2)CC1 [Olaparib] + C=CC(=O)N1CCN(c2nc(=O)n(-c3c(C)ccnc3C(C)C)c3nc(-c4c(O)cccc4F)c(F)cc23)[C@@H](C)C1 [sotorasib] | 1.2 | 6.94 | 8.33
20 | C=CC(=O)Nc1cc(Nc2nccc(-c3cn(C)c4ccccc34)n2)c(OC)cc1N(C)CCN(C)C [Osimertinib] + C=CC(=O)N1CCN(c2nc(=O)n(-c3c(C)ccnc3C(C)C)c3nc(-c4c(O)cccc4F)c(F)cc23)[C@@H](C)C1 [sotorasib] | 11.6 | 16.7 | 15.9
